Source: ChEMBL document CHEMBL6092180 (Eur J Med Chem, 2024)
In brackets after ≈: the same amount, converted by molar mass.

Columns and labels:
Assay type in all cases: functional
Pichia kudriavzevii = test: Antifungal activity against Candida krusei GIM 2.1 assessed as inhibition of fungal growth by CLSI M27-A3 guidelines based method
Candida albicans [1] = test: Antifungal activity against fluconazole and iodiconazole resistant Candida albicans clinical isolate 17# assessed as inhibition of fungal growth by CLSI M27-A3 guidelines based method
Candida albicans [2] = test: Antifungal activity against Candida albicans GIM 2.194 assessed as inhibition of fungal growth by CLSI M27-A3 guidelines based method
Candida albicans [3] = test: Antifungal activity against fluconazole-resistant Candida albicans clinical isolate 632 assessed as inhibition of fungal growth by CLSI M27-A3 guidelines based method
Candida albicans [4] = test: Antifungal activity against fluconazole-resistant Candida albicans CaR assessed as inhibition of fungal growth by CLSI M27-A3 guidelines based method
Candida albicans [5] = test: Antifungal activity against fluconazole-resistant Candida albicans clinical isolate 103 assessed as inhibition of fungal growth by CLSI M27-A3 guidelines based method
Aspergillus fumigatus = test: Antifungal activity against Aspergillus fumigatus cgmcc 3.7795 assessed as inhibition of fungal growth by CLSI M27-A3 guidelines based method
Candida albicans [6] = test: Antifungal activity against fluconazole-resistant Candida albicans clinical isolate 904 assessed as inhibition of fungal growth by CLSI M27-A3 guidelines based method
Candida albicans [7] = test: Antifungal activity against fluconazole-resistant Candida albicans clinical isolate 901 assessed as inhibition of fungal growth by CLSI M27-A3 guidelines based method
Cryptococcus neoformans = test: Antifungal activity against Cryptococcus neoformans CGMCC 2.3161 assessed as inhibition of fungal growth by CLSI M27-A3 guidelines based method
Candida albicans [8] = test: Antifungal activity against fluconazole-resistant Candida albicans clinical isolate 100 assessed as inhibition of fungal growth by CLSI M27-A3 guidelines based method
Nakaseomyces glabratus = test: Antifungal activity against Candida glabrata assessed as inhibition of fungal growth by CLSI M27-A3 guidelines based method
Candida albicans [9] = test: Antifungal activity against fluconazole-resistant Candida albicans clinical isolate 311 assessed as inhibition of fungal growth by CLSI M27-A3 guidelines based method
Candida tropicalis = test: Antifungal activity against Candida tropicalis GIM 2.183 assessed as inhibition of fungal growth by CLSI M27-A3 guidelines based method
Candida parapsilosis = test: Antifungal activity against Candida parapsilosis GIM 2.190 assessed as inhibition of fungal growth by CLSI M27-A3 guidelines based method; conditions: Lodderomyces parapsilosis
Candida albicans [10] = test: Antifungal activity against Candida albicans SC5314 assessed as inhibition of fungal growth by CLSI M27-A3 guidelines based method

| MIC80 (Pichia kudriavzevii) [µg/mL] | MIC80 (Candida albicans [2]) [µg/mL] | MIC80 (Cryptococcus neoformans) [µg/mL] | MIC80 (Nakaseomyces glabratus) [µg/mL] | MIC80 (Candida tropicalis) [µg/mL] | MIC80 (Candida parapsilosis) [µg/mL] | MIC80 (Candida albicans [10]) [µg/mL] | Compound | MIC80 (Candida albicans [1]) [µg/mL] | MIC80 (Candida albicans [3]) [µg/mL] | MIC80 (Candida albicans [4]) [µg/mL] | MIC80 (Candida albicans [5]) [µg/mL] | MIC80 (Aspergillus fumigatus) [µg/mL] | MIC80 (Candida albicans [6]) [µg/mL] | MIC80 (Candida albicans [7]) [µg/mL] | MIC80 (Candida albicans [8]) [µg/mL] | MIC80 (Candida albicans [9]) [µg/mL] |
| --- | --- | --- | --- | --- | --- | --- | --- | --- | --- | --- | --- | --- | --- | --- | --- | --- |
| 0.2 (≈ 0.409 µM) | 0.013 (≈ 0.0266 µM) | 0.05 (≈ 0.102 µM) | 0.8 (≈ 1.64 µM) | 0.013 (≈ 0.0266 µM) | 0.013 (≈ 0.0266 µM) | 0.013 (≈ 0.0266 µM) | COc1ccc(C#Cc2ccc(CN(C)CC(O)(Cn3cncn3)c3ccc(F)cc3F)cc2)cc1 (stereo unspecified) | – | – | – | – | – | – | – | – | – |
| 0.03 (≈ 0.0596 µM) | 0.006 (≈ 0.0119 µM) | 0.013 (≈ 0.0258 µM) | 0.03 (≈ 0.0596 µM) | 0.006 (≈ 0.0119 µM) | 0.006 (≈ 0.0119 µM) | 0.006 (≈ 0.0119 µM) | CN(Cc1ccc(C#Cc2ccc([N+](=O)[O-])cc2)cc1)CC(O)(Cn1cncn1)c1ccc(F)cc1F (stereo unspecified) | – | – | – | – | – | – | – | – | – |
| 0.01 (≈ 0.018 µM) | 0.006 (≈ 0.0108 µM) | 0.025 (≈ 0.045 µM) | 0.03 (≈ 0.054 µM) | 0.006 (≈ 0.0108 µM) | 0.006 (≈ 0.0108 µM) | 0.006 (≈ 0.0108 µM) | CN(Cc1ccc(C#Cc2ccc(Br)c(F)c2)cc1)CC(O)(Cn1cncn1)c1ccc(F)cc1F (stereo unspecified) | – | – | – | – | – | – | – | – | – |
| 0.03 (≈ 0.0599 µM) | 0.006 (≈ 0.012 µM) | 0.006 (≈ 0.012 µM) | 0.03 (≈ 0.0599 µM) | 0.006 (≈ 0.012 µM) | 0.006 (≈ 0.012 µM) | 0.006 (≈ 0.012 µM) | CC(=O)c1ccc(C#Cc2ccc(CN(C)CC(O)(Cn3cncn3)c3ccc(F)cc3F)cc2)cc1 (stereo unspecified) | – | – | – | – | – | – | – | – | – |
| 0.8 (≈ 1.37 µM) | 0.006 (≈ 0.0103 µM) | 0.025 (≈ 0.0428 µM) | 1.6 (≈ 2.74 µM) | 0.006 (≈ 0.0103 µM) | 0.006 (≈ 0.0103 µM) | 0.013 (≈ 0.0222 µM) | CN(Cc1ccc(C#Cc2ccccc2I)cc1)CC(O)(Cn1cncn1)c1ccc(F)cc1F (stereo unspecified) | – | – | – | – | – | – | – | – | – |
| 0.05 (≈ 0.103 µM) | 0.013 (≈ 0.0267 µM) | 0.05 (≈ 0.103 µM) | 0.1 (≈ 0.206 µM) | 0.013 (≈ 0.0267 µM) | 0.013 (≈ 0.0267 µM) | 0.013 (≈ 0.0267 µM) | CN(Cc1ccc(C#Cc2ccc(C=O)cc2)cc1)CC(O)(Cn1cncn1)c1ccc(F)cc1F (stereo unspecified) | – | – | – | – | – | – | – | – | – |
| 0.03 (≈ 0.0585 µM) | 0.006 (≈ 0.0117 µM) | 0.013 (≈ 0.0254 µM) | 0.01 (≈ 0.0195 µM) | 0.006 (≈ 0.0117 µM) | 0.006 (≈ 0.0117 µM) | 0.006 (≈ 0.0117 µM) | CN(Cc1ccc(C#Cc2cc(F)c(F)cc2F)cc1)CC(O)(Cn1cncn1)c1ccc(F)cc1F (stereo unspecified) | – | – | – | – | – | – | – | – | – |
| 0.03 (≈ 0.054 µM) | 0.006 (≈ 0.0108 µM) | 0.025 (≈ 0.045 µM) | 0.03 (≈ 0.054 µM) | 0.006 (≈ 0.0108 µM) | 0.006 (≈ 0.0108 µM) | 0.006 (≈ 0.0108 µM) | CN(Cc1ccc(C#Cc2ccc(Br)cc2F)cc1)CC(O)(Cn1cncn1)c1ccc(F)cc1F (stereo unspecified) | – | – | – | – | – | – | – | – | – |
| 0.8 (≈ 1.69 µM) | 0.013 (≈ 0.0275 µM) | 0.025 (≈ 0.0529 µM) | 0.4 (≈ 0.846 µM) | 0.025 (≈ 0.0529 µM) | 0.013 (≈ 0.0275 µM) | 0.013 (≈ 0.0275 µM) | Cc1cccc(C#Cc2ccc(CN(C)CC(O)(Cn3cncn3)c3ccc(F)cc3F)cc2)c1 (stereo unspecified) | – | – | – | – | – | – | – | – | – |

| Compound | MIC80 (Pichia kudriavzevii) [µg/mL] | MIC80 (Candida albicans [2]) [µg/mL] | MIC80 (Cryptococcus neoformans) [µg/mL] | MIC80 (Nakaseomyces glabratus) [µg/mL] | MIC80 (Candida tropicalis) [µg/mL] | MIC80 (Candida parapsilosis) [µg/mL] | MIC80 (Candida albicans [10]) [µg/mL] | MIC80 (Candida albicans [1]) [µg/mL] | MIC80 (Candida albicans [3]) [µg/mL] | MIC80 (Candida albicans [4]) [µg/mL] | MIC80 (Candida albicans [5]) [µg/mL] | MIC80 (Aspergillus fumigatus) [µg/mL] | MIC80 (Candida albicans [6]) [µg/mL] | MIC80 (Candida albicans [7]) [µg/mL] | MIC80 (Candida albicans [8]) [µg/mL] | MIC80 (Candida albicans [9]) [µg/mL] |
| --- | --- | --- | --- | --- | --- | --- | --- | --- | --- | --- | --- | --- | --- | --- | --- | --- |
| C[C@@H](N(C)Cc1ccc(C#Cc2ccc(C#N)cc2)cc1)[C@](O)(Cn1cncn1)c1ccc(F)cc1F | 0.01 (≈ 0.0201 µM) | 0.006 (≈ 0.0121 µM) | 0.006 (≈ 0.0121 µM) | 0.01 (≈ 0.0201 µM) | 0.006 (≈ 0.0121 µM) | 0.006 (≈ 0.0121 µM) | 0.006 (≈ 0.0121 µM) | 0.25 (≈ 0.502 µM) | 8 (≈ 16.1 µM) | 0.5 (≈ 1 µM) | 8 (≈ 16.1 µM) | 0.05 (≈ 0.1 µM) | 32 (≈ 64.3 µM) | 8 (≈ 16.1 µM) | 16 (≈ 32.2 µM) | 32 (≈ 64.3 µM) |
| C[C@@H](N(C)Cc1ccc(C#Cc2ccc(F)cc2)cc1)[C@](O)(Cn1cncn1)c1ccc(F)cc1F | 0.03 (≈ 0.0612 µM) | 0.025 (≈ 0.051 µM) | 0.013 (≈ 0.0265 µM) | 0.01 (≈ 0.0204 µM) | 0.006 (≈ 0.0122 µM) | 0.006 (≈ 0.0122 µM) | 0.025 (≈ 0.051 µM) | 0.25 (≈ 0.51 µM) | 4 (≈ 8.15 µM) | 0.25 (≈ 0.51 µM) | 8 (≈ 16.3 µM) | 0.1 (≈ 0.204 µM) | 16 (≈ 32.6 µM) | 4 (≈ 8.15 µM) | 4 (≈ 8.15 µM) | 16 (≈ 32.6 µM) |
| C[C@@H](N(C)Cc1ccc(C#Cc2ccc([N+](=O)[O-])cc2)cc1)[C@](O)(Cn1cncn1)c1ccc(F)cc1F | 0.01 (≈ 0.0193 µM) | 0.006 (≈ 0.0116 µM) | 0.013 (≈ 0.0251 µM) | 0.01 (≈ 0.0193 µM) | 0.006 (≈ 0.0116 µM) | 0.006 (≈ 0.0116 µM) | 0.013 (≈ 0.0251 µM) | 0.5 (≈ 0.966 µM) | 4 (≈ 7.73 µM) | 0.25 (≈ 0.483 µM) | 8 (≈ 15.5 µM) | 0.05 (≈ 0.0966 µM) | 32 (≈ 61.8 µM) | 8 (≈ 15.5 µM) | 16 (≈ 30.9 µM) | 16 (≈ 30.9 µM) |
